# Results as given in ChEMBL document CHEMBL5543173, “Discovery of a New Anti-Inflammatory Agent from Anemoside B4 Derivatives and Its Therapeutic Effect on Colitis by Targeting Pyruvate Carboxylase” (J Med Chem, 2024).
# The source made the active and inactive calls. The calls are words filed in the database; no cut-off is given here.
# Tests used:
# Mus musculus [1] = assay: Anti-colitis activity in ICR mouse model assessed as decrease in DSS-induced body weight loss at 400 mg/kg, IG treated for 9 days consecutively; type: functional, organism-based; conditions: time 9.0 day
# Mus musculus [2] = assay: Anti-colitis activity in ICR mouse model of DSS-induced colitis assessed as decrease in DAI score at 400 mg/kg, IG treated for 9 days consecutively; type: functional, organism-based; conditions: time 9.0 day
# Mus musculus [3] = assay: Anti-colitis activity in ICR mouse model assessed as reversal of DSS-induced colon shortening administered intragastrically for 9 days consecutively; type: functional, organism-based; conditions: route ig, time 9.0 day
# Mus musculus [4] = assay: Anti-colitis activity in ICR mouse model assessed as reversal of DSS-induced splenomegaly at 400 mg/kg, IG treated for 9 days consecutively; type: functional, organism-based; conditions: time 9.0 day
# Mus musculus [5] = assay: Anti-colitis activity in ICR mouse model assessed as reversal of DSS-induced spleen weight at 400 mg/kg, IG treated for 9 days consecutively; type: functional, organism-based; conditions: time 9.0 day
# THP-1 [6] = assay: Anti-inflammatory activity in LPS-treated human THP-1 cells assessed as decrease in phosphorylated I-kappaB-alpha level at 10 uM pretreated for 1 hr followed by LPS treatment for 6 hrs by Western blot analysis; type: functional, cell-based; conditions: time 7.0 hrs
# THP-1 [7] = assay: cells; conditions: Homo sapiens, THP-1, 24 h
# Mus musculus [8] = assay: Anti-colitis activity in DSS-induced colitis mouse model at 20 to 40 mg/kg; type: functional, organism-based; conditions: dose 20-40 mg/kg
# [9] = target: T1, Pyruvate carboxylase, mitochondrial (Homo sapiens, UniProt P11498); assay: Inhibition of pyruvate carboxylase (unknown origin) by NADH-malate dehydrogenase based spectrophotometry
# T1 sequence (P11498 whole entry): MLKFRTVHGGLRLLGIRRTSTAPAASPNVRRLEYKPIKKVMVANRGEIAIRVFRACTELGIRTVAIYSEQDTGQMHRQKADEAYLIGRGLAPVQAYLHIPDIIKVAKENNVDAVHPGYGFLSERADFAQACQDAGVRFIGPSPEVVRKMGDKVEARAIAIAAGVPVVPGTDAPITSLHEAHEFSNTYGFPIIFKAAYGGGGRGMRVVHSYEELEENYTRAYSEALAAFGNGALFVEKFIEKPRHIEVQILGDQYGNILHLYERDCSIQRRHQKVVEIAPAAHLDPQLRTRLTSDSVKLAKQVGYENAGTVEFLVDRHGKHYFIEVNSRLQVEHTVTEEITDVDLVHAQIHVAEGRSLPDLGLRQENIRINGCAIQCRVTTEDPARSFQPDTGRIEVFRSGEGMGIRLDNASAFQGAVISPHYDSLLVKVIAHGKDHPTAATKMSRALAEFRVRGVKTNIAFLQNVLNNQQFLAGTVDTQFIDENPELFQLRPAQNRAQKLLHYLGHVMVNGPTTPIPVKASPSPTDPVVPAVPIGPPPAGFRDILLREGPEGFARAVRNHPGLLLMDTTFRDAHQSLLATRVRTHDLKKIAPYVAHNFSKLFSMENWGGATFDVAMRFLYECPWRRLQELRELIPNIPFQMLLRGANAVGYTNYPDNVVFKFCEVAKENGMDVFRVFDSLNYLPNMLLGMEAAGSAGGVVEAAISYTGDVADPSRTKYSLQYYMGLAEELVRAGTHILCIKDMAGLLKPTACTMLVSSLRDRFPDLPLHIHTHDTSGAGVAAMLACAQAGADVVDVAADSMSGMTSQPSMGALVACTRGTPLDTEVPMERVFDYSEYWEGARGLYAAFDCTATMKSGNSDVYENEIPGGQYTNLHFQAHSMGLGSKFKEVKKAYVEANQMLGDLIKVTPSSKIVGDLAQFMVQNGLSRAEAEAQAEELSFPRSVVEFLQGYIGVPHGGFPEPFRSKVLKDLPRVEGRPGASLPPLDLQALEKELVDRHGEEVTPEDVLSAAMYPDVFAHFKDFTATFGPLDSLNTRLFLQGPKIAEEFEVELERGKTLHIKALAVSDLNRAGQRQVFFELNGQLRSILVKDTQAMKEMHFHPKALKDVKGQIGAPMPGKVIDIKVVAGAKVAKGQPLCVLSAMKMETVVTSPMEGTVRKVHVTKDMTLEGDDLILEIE
# [10] = Tmax in ICR mouse at 15 mg/kg, IG measured for 12 hrs by LC-MS/MS analysis; type: ADME, organism-based; conditions: in vivo, po
# [11] = Half life in ICR mouse at 15 mg/kg, IG measured for 12 hrs by LC-MS/MS analysis; type: ADME, organism-based; conditions: in vivo, po, 15 mg/kg, 12 h
# [12] = Cmax in ICR mouse at 15 mg/kg, IG measured for 12 hrs by LC-MS/MS analysis; type: ADME, organism-based; conditions: in vivo, po
# [13] = AUC (0 to t) in ICR mouse at 15 mg/kg, IG measured for 12 hrs by LC-MS/MS analysis; type: ADME, organism-based; conditions: in vivo, po
# [14] = MRT (0 to t) in ICR mouse at 15 mg/kg, IG measured for 12 hrs by LC-MS/MS analysis; type: ADME, organism-based; conditions: in vivo, po
# [15] = Tmax in colon of ICR mouse at 15 mg/kg, IG measured for 12 hrs by LC-MS/MS analysis; type: ADME, organism-based; conditions: po
# [16] = Half life in colon of ICR mouse at 15 mg/kg, IG measured for 12 hrs by LC-MS/MS analysis; type: ADME, organism-based; conditions: po
# [17] = Cmax in colon of ICR mouse at 15 mg/kg, IG measured for 12 hrs by LC-MS/MS analysis; type: ADME, organism-based; conditions: po
# [18] = AUC (0 to t) in colon of ICR mouse at 15 mg/kg, IG measured for 12 hrs by LC-MS/MS analysis; type: ADME, organism-based; conditions: po
# [19] = MRT (0 to t) in colon of ICR mouse at 15 mg/kg, IG measured for 12 hrs by LC-MS/MS analysis; type: ADME, organism-based; conditions: po
smiles,measurement,setting,value
Nc1ccc(O)c(C(=O)O)c1,Activity,Mus musculus [1],Active
same,Activity,Mus musculus [2],Active
same,Activity,Mus musculus [3],Dose-Dependent Effect
same,Activity,Mus musculus [4],Active
same,Activity,Mus musculus [5],Active
C=C(C)[C@@H]1CC[C@]2(C(=O)NCCCNC(=O)OC(C)(C)C)CC[C@]3(C)[C@H](CC[C@@H]4[C@@]5(C)CC[C@H](O[C@@H]6OC[C@H](O)[C@H](O)[C@H]6O[C@@H]6O[C@@H](C)[C@H](O)[C@@H](O)[C@H]6O)[C@@](C)(CO)[C@@H]5CC[C@]43C)[C@@H]12,Activity,THP-1 [6],Active
same,IC50,THP-1 [7],≥ 80 µM
C=C(C)[C@@H]1CC[C@]2(C(=O)O)CC[C@]3(C)[C@H](CC[C@@H]4[C@@]5(C)CC[C@H](O[C@@H]6OC[C@H](O)[C@H](O)[C@H]6O[C@@H]6O[C@@H](C)[C@H](O)[C@@H](O)[C@H]6O)[C@@](C)(CO)[C@@H]5CC[C@]43C)[C@@H]12,Activity,Mus musculus [8],inactive
same,IC50,[9],> 10 µM
same,IC50,THP-1 [7],≥ 80 µM
C=C(C)[C@@H]1CC[C@]2(C(=O)O[C@@H]3O[C@H](CO[C@@H]4O[C@H](CO)[C@@H](O[C@@H]5O[C@@H](C)[C@H](O)[C@@H](O)[C@H]5O)[C@H](O)[C@H]4O)[C@@H](O)[C@H](O)[C@H]3O)CC[C@]3(C)[C@H](CC[C@@H]4[C@@]5(C)CC[C@H](O[C@@H]6OC[C@H](O)[C@H](O)[C@H]6O[C@@H]6O[C@@H](C)[C@H](O)[C@@H](O)[C@H]6O)[C@@](C)(CO)[C@@H]5CC[C@]43C)[C@@H]12,Tmax,[10],0.46 h
same,t1/2,[11],4.74 h
same,Cmax,[12],0.58 ng/mL
same,AUCt,[13],2.46 ng·h/mL
same,MRT last at 12 h,[14],5.13 h
same,Tmax,[15],1.92 h
same,half-life,[16],4.65 h
same,Cmax,[17],7.12 ng/mL
same,AUC(0-t) at 12 h,[18],30.2 ng·h/mL
same,MRT last at 12 h,[19],4.38 h
same,IC50,THP-1 [7],≥ 80 µM
C=C(C)[C@@H]1CC[C@]2(C(=O)NCCCCCCCC(=O)OCC)CC[C@]3(C)[C@H](CC[C@@H]4[C@@]5(C)CC[C@H](O[C@@H]6OC[C@H](O)[C@H](O)[C@H]6O[C@@H]6O[C@@H](C)[C@H](O)[C@@H](O)[C@H]6O)[C@@](C)(CO)[C@@H]5CC[C@]43C)[C@@H]12,IC50,[9],> 1 µM
same,IC50,THP-1 [7],≥ 80 µM
C[C@@H]1C[C@H]2[C@@H]3CCC4=CC(=O)C=C[C@]4(C)[C@@]3(F)[C@@H](O)C[C@]2(C)[C@@]1(O)C(=O)CO [DEXAMETHASONE],IC50,[9],> 1 µM
same,IC50,THP-1 [7],≥ 80 µM
C=C(C)[C@@H]1CC[C@]2(C(=O)NC3CC3)CC[C@]3(C)[C@H](CC[C@@H]4[C@@]5(C)CC[C@H](O[C@@H]6OC[C@H](O)[C@H](O)[C@H]6O[C@@H]6O[C@@H](C)[C@H](O)[C@@H](O)[C@H]6O)[C@@](C)(CO)[C@@H]5CC[C@]43C)[C@@H]12,IC50,[9],> 10 µM
same,IC50,THP-1 [7],≥ 80 µM
C=C(C)[C@@H]1CC[C@]2(C(=O)NCC(=O)OCC)CC[C@]3(C)[C@H](CC[C@@H]4[C@@]5(C)CC[C@H](O[C@@H]6OC[C@H](O)[C@H](O)[C@H]6O[C@@H]6O[C@@H](C)[C@H](O)[C@@H](O)[C@H]6O)[C@@](C)(CO)[C@@H]5CC[C@]43C)[C@@H]12,IC50,[9],> 1 µM
same,IC50,THP-1 [7],≥ 80 µM
